Data: PubChem BioAssay AID1918957 (Molecular Pharmacology Branch, DTP, NCI, 2023)
Where “and” joins values, the source holds several entries; their conditions need not be identical. Equal values may be shown once. One block for each molecule: values may come before it.

System: NCI-H1876 complex spheroid viability
Assay: Anticancer human tumor NCI-H1876 cell line growth inhibition [LSD1];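 further: spheroids exposed to compounds for one week before readout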;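 on viability, T/C: 100% = DMSO vehicle-treated spheroids so lower means fewer viable cells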
Details: for viability, T/C: stronger effect = lower value
Summary of the method: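 Drug combinations with the LSD1 inhibitor iadademstat tested on tumor cells co-cultured as spheroids with endothelial cells and mesenchymal stem cells. Concentrations descended in half-log increments from clinical Cmax or 10 microM.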

[1] = curve of first compound, second compound 0.1 µM
[2] = curve of first compound, second compound 0.316 µM
[3] = curve of first compound, second compound 1 µM
[4] = curve of first compound, second compound 3.16 µM
[5] = curve of first compound, second compound 10 µM
[6] = second compound 0.1 µM, first compound 0.0316 µM
[7] = second compound 0.1 µM, first compound 0.1 µM
[8] = second compound 0.316 µM, first compound 0.0316 µM
[9] = second compound 0.316 µM, first compound 0.1 µM
[10] = second compound 1 µM, first compound 0.0316 µM
[11] = second compound 1 µM, first compound 0.1 µM
[12] = second compound 3.16 µM, first compound 0.0316 µM
[13] = second compound 3.16 µM, first compound 0.1 µM
[14] = second compound 10 µM, first compound 0.0316 µM
[15] = second compound 10 µM, first compound 0.1 µM

Structure (SMILES): CC(C)c1c(-c2ccccc2)nc2c(C#N)c[nH]n2c1=O + NC1CCC(NC2CC2c2ccccc2)CC1
IC50 [1]: 7010 nM
IC50 [2]: 7170 nM
IC50 [3]: 6830 nM
IC50 [4]: 6120 nM
IC50 [5]: 6210 nM
viability, T/C [6]: 100%
viability, T/C [7]: 97.1%
viability, T/C (second compound 0.1 µM, first compound 0.316 µM): 109%
viability, T/C (second compound 0.1 µM, first compound 1 µM): 97%
viability, T/C (second compound 0.1 µM, first compound 3.16 µM): 94.2%
viability, T/C (second compound 0.1 µM, first compound 10 µM): 30.1%
viability, T/C [8]: 90.2%
viability, T/C [9]: 106%
viability, T/C (second compound 0.316 µM, first compound 0.316 µM): 103%
viability, T/C (second compound 0.316 µM, first compound 1 µM): 88.9%
viability, T/C (second compound 0.316 µM, first compound 3.16 µM): 93.1%
viability, T/C (second compound 0.316 µM, first compound 10 µM): 32.4%
viability, T/C [10]: 97.1%
viability, T/C [11]: 101%
viability, T/C (second compound 1 µM, first compound 0.316 µM): 99.8%
viability, T/C (second compound 1 µM, first compound 1 µM): 95.1%
viability, T/C (second compound 1 µM, first compound 3.16 µM): 89.7%
viability, T/C (second compound 1 µM, first compound 10 µM): 30.7%
viability, T/C [12]: 99%
viability, T/C [13]: 106%
viability, T/C (second compound 3.16 µM, first compound 0.316 µM): 102%
viability, T/C (second compound 3.16 µM, first compound 1 µM): 92%
viability, T/C (second compound 3.16 µM, first compound 3.16 µM): 88.2%
viability, T/C (second compound 3.16 µM, first compound 10 µM): 22.5%
viability, T/C [14]: 89.4%
viability, T/C [15]: 93.6%
viability, T/C (second compound 10 µM, first compound 0.316 µM): 92.6%
viability, T/C (second compound 10 µM, first compound 1 µM): 99.3%
viability, T/C (second compound 10 µM, first compound 3.16 µM): 90.5%
viability, T/C (second compound 10 µM, first compound 10 µM): 21.3%

IC50 (curve of compound): 165 nM and 150 nM
Structure (SMILES): NS(=O)(=O)OCC1CC(n2ccc3c(NC4CCc5ccccc54)ncnc32)CC1O (stereo unspecified)
viability, T/C (compound 0.00949 µM): 84.9% and 85.4%
viability, T/C (compound 0.03 µM): 66.2% and 63.6%
viability, T/C (compound 0.0949 µM): 56.7% and 51.4%
viability, T/C (compound 0.3 µM): 43.3% and 49.8%
viability, T/C (compound 0.949 µM): 39% and 40.2%
viability, T/C (compound 3 µM): 32.8% and 39%

IC50 (curve of compound): 94.9 nM and 79.1 nM
Structure (SMILES): O=C(C=Cn1cnc(-c2cc(C(F)(F)F)cc(C(F)(F)F)c2)n1)NNc1cnccn1
viability, T/C (compound 0.00316 µM): 99.2% and 92.7%
viability, T/C (compound 0.01 µM): 91% and 89.3%
viability, T/C (compound 0.0316 µM): 84.4% and 80%
viability, T/C (compound 0.1 µM): 47.8% and 42%
viability, T/C (compound 0.316 µM): 23.1% and 16.6%
viability, T/C (compound 1 µM): 16.3% and 9.98%

IC50 (curve of compound): < 0.949 nM
Structure (SMILES): CCc1c2c(nc3ccc(O)cc13)-c1cc3c(c(=O)n1C2)COC(=O)[C@]3(O)CC
viability, T/C (compound 0.000949 µM): 8.16% and 5.21%
viability, T/C (compound 0.003 µM): 6.7% and 3.21%
viability, T/C (compound 0.00949 µM): 3.77% and 1.73%
viability, T/C (compound 0.03 µM): 0.82% and 0.45%
viability, T/C (compound 0.0949 µM): 0.56% and 0.42%
viability, T/C (compound 0.3 µM): 0.51% and 0.41%

Structure (SMILES): CC(C)CC(NC(=O)C(Cc1ccccc1)NC(=O)c1cnccn1)B(O)O (stereo unspecified) + NC1CC1c1ccc(-c2cccc(O)c2)cc1
IC50 [1]: 0.406 nM
IC50 [2]: 0.444 nM
IC50 [3]: 0.446 nM
IC50 [4]: 0.374 nM
IC50 [5]: < 0.316 nM
viability, T/C (second compound 0.1 µM, first compound 0.000316 µM): 63.8%
viability, T/C (second compound 0.1 µM, first compound 0.001 µM): 0.34%
viability, T/C (second compound 0.1 µM, first compound 0.00316 µM): 0.19%
viability, T/C (second compound 0.1 µM, first compound 0.01 µM): 0.14%
viability, T/C [6]: 0.14%
viability, T/C [7]: 0.24%
viability, T/C (second compound 0.316 µM, first compound 0.000316 µM): 70.6%
viability, T/C (second compound 0.316 µM, first compound 0.001 µM): 0.44%
viability, T/C (second compound 0.316 µM, first compound 0.00316 µM): 0.17%
viability, T/C (second compound 0.316 µM, first compound 0.01 µM): 0.12%
viability, T/C [8]: 0.15%
viability, T/C [9]: 0.21%
viability, T/C (second compound 1 µM, first compound 0.000316 µM): 71.2%
viability, T/C (second compound 1 µM, first compound 0.001 µM): 0.42%
viability, T/C (second compound 1 µM, first compound 0.00316 µM): 0.22%
viability, T/C (second compound 1 µM, first compound 0.01 µM): 0.31%
viability, T/C [10]: 0.13%
viability, T/C [11]: 0.22%
viability, T/C (second compound 3.16 µM, first compound 0.000316 µM): 58.4%
viability, T/C (second compound 3.16 µM, first compound 0.001 µM): 0.35%
viability, T/C (second compound 3.16 µM, first compound 0.00316 µM): 0.22%
viability, T/C (second compound 3.16 µM, first compound 0.01 µM): 0.16%
viability, T/C [12]: 0.14%
viability, T/C [13]: 0.24%
viability, T/C (second compound 10 µM, first compound 0.000316 µM): 41.6%
viability, T/C (second compound 10 µM, first compound 0.001 µM): 0.43%
viability, T/C (second compound 10 µM, first compound 0.00316 µM): 0.48%
viability, T/C (second compound 10 µM, first compound 0.01 µM): 0.28%
viability, T/C [14]: 0.26%
viability, T/C [15]: 0.34%
